Each structure is given as a SMILES string.

We go through one compound from article PMC3166964 (Biophysical chemistry, 2011).

The target of the assay is T1, caspase-3(D9A,D28A) (Homo sapiens, UniProt P42574, D28A/D9A).
T1 sequence (P42574 1-175 D9A/D28A limits assumed): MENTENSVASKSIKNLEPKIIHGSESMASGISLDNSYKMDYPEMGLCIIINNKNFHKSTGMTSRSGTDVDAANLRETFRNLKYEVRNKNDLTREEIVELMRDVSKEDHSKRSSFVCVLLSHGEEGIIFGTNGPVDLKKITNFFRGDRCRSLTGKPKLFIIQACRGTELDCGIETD
T1 sequence (P42574 176-277 limits assumed): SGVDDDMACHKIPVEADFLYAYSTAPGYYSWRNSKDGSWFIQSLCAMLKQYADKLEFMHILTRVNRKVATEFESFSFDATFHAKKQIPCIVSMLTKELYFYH
Description: isothermal titration calorimetry. The assay is classed as binding. For orientation: Isothermal titration calorimetry measures the heat released or taken up as one component is titrated into another.

`CCN(CC)S(=O)(=O)c1ccc(-c2ccc(S(=O)(=O)N(CC)CC)s2)s1` [compound 42, N2,N2-diethyl-5-{5-[(diethylamino)sulfonyl]-2-thienyl}thiophene-2-sulfonamide] returned a Kd of around 4 µM.

A word on the Kd: it is the equilibrium constant for the complex coming apart. A low value points to a tighter complex.
